According to patent publication US20180228799A1, “Treatment for Neurological and Mental Disorders” (PSYCHOGENICS, INC., priority 2008, published 2018):
Entries after “also recorded” stand apart in the source; their conditions may differ.

What was measured:
[1] = tested on: prefrontal cortex (PFC) of C57 mice; experiment: Microdialysis in the prefrontal cortex; format: in vivo; conditions: 3, 10 and 30 mg/kg, six mice per dose group
Protocol: Microdialysis probes were implanted in the prefrontal cortex; coordinates were: AP+2.0 mm, ML+0.7 mm (under an 8° angle) from bregma, DV −3.3 mm from the dura, with the tooth-bar also set at 0 mm. The active dialysis surface length of the membrane was 2 mm. Microdialysis experiments started 48 h (prefrontal cortex) after surgery. Ringer solution was perfused through the microdialysis probe at a flow at 1.166 μl/min using a high precision pump (KdScientific 220). Mouse dual channel swivels (Type 375/D/22QM, Instech Laboratories, Inc.) connected to PEEK-tubing (ID 0.005,″ OD 0.020″) were used to allow unrestrained movements of the mice. Samples were collected by hand 2.5 h after the start of the dialysis probe perfusion to obtain stable baseline values for the monoamines and their metabolites. The average of the first four samples was calculated and represents the baseline level. Samples were collected every 30 min were analyzed by HPLC with electrochemical detection.
Six mice per dose group were treated with vehicle or eltoprazine at 3 mg/kg, 10 mg/kg and 30 mg/kg.

Male Wistar rats = experiment: Novel Object Recognition Test (NOR); format: in vivo; conditions: 0.3, 1, 3, and 10 mg/kg, 1 h prior to training, 24 hours post training, FIG. 3
Excerpt: In addition to working memory deficits, the initiative, “Measurement and Treatment Research to Improve Cognition in Schizophrenia” (MATRICS) has identified other domains of learning and memory in which schizophrenia patients show impaired visual learning and memory. There are several visual learning and memory tasks appropriate for study in rodents (Powell, S. B. and M. A. Geyer, Overview of animal models of schizophrenia. Curr Protoc Neurosci, 2007. Chapter 9: p. Unit 9 24). […]
Male Wistar rats were assessed for cognitive ability in a test apparatus comprising an open-field arena placed in a sound-attenuated room under dimmed lighting. […] All tests were video scored by an observer blind to treatment. […] Each rat was placed in the arena facing the same direction at the same position, and the time spent actively exploring the objects during a 10-minute test period was recorded. […] After 24 hours, each rat was placed again in the test arena for 10 minutes in the presence of one of the familiar objects and a novel object, and the time spent exploring both objects was recorded. […] The percent time spent exploring the novel object was recorded.

[2] = tested on: symptoms of ADHD in adults; experiment: ADHD-RS-IV, double-blind placebo-controlled crossover trial in adults with ADHD; format: in vivo, human; conditions: for ADHD-RS-IV Inattention subscale, Baseline Score / ADHD-RS-IV Hyperactivity subscale, Baseline Score / ADHD-RS-IV Impulsivity subscale, Baseline Score / ADHD-RS-IV Total score, Baseline Score: before treatment
Protocol: The primary objective of this study was to compare the effects of two doses of eltoprazine with placebo on symptoms of ADHD in adults. The primary efficacy parameter is the Attention-Deficit/Hyperactivity Disorder Rating Scale-IV (ADHD-RS-IV).
(§1) This double-blind, multiple-dose, placebo-controlled, crossover study was conducted to assess the effects of 14 days of oral eltoprazine treatment in 48 adults with ADHD. Subjects eligible for study enrollment were to have met Diagnostic and Statistical Manual of Mental Disorders, Fourth Edition, Text Revision (DSM-IV-TR) criteria for ADHD. Assessment was to be made by clinical history, a Structured Clinical Interview for DSM-IV Axis Disorders-Research Version (SCID-RV), and a Conners' Adult ADHD Diagnostic Interview for DSM IV (CAADID).
(§2) Oral doses of eltoprazine hydrochloride were 5 mg/day or 10 mg/day for 14 consecutive days (i.e., 2.5 or 5 mg twice daily (bid), respectively). Eltoprazine hydrochloride was administered in gelatin capsules with calcium hydrogen phosphate, 2H2O, maize starch NF, polyethylene glycol 6000 NF and magnesium stearate NF as excipients.
Primary endpoints were evaluated with the ADHD-RS-IV. After 14 days of treatment with placebo, 5 mg/day, or 10 mg/day eltoprazine, overall symptoms of ADHD were improved as measured by the ADHD-RS-IV, in which higher scores reflect greater impairment.
ADHD-RS-IV, CPT, and CGI-I scores were analyzed separately for those subjects whose baseline score was >40, indicating greater impairment. Twenty-two subjects had baseline ADHD-RS-IV total scores >40.

[3] = tested on: symptoms of ADHD in adults; experiment: Continuous Performance Test (CPT), same trial; format: in vivo, human; conditions: 5 or 10 mg/day, 14 days
Protocol: as §1, §2
Secondary endpoints were evaluated with the Clinical Global Impressions-Improvement (CGI-I) and Continuous Performance Test. (CPT). The CGI-I test is used to determine the […] of improvement.

dopamine receptors = conditions: Schipper et al.; read-out: Ki (affinity for dopamine receptors); cited from earlier work
[4] = 5 mg/day oral, 14 days, all patients N = 38
[5] = 5 mg/day oral, all patients N = 38
[6] = 10 mg/day oral, 14 days, all patients N = 37
[7] = 10 mg/day oral, all patients N = 37
[8] = subjects with baseline score >40 (more severe ADHD), 5 mg/day, 14 days

For `c1cc2c(c(N3CCNCC3)c1)OCCO2` [Eltoprazine, 1-(2,3-dihydro-1,4-benzodioxanyl-5-yl) piperazine], which “Release of dopamine in the PFC” value ([1]; FIG. 4) is on record?
The value was “significant release; also recorded: dose-related increase”.

And the “Release of the dopamine metabolite DOPAC in the PFC” value ([1]; FIG. 5)?
The value was “dose-related increase”.

And the “Release of the metabolite HVA in the PFC” value ([1]; FIG. 6)?
Its value is “dose-related increase”.

What about the “Release of norepinephrine in the PFC” value ([1]; FIG. 7) of the same compound?
Its value is “significant release; also recorded: dose-related increase”.

What about the “Novel object recognition (NOR) memory vs. vehicle-treated controls” value (Male Wistar rats) of the same compound?
Its value is “significantly improved”.

And the “ADHD-RS-IV Inattention subscale, Post Treatment Score” value ([2]; 5 mg/day oral (2.5 mg bid), 14 days, all patients N = 38)?
The value was 14.5.

And the “ADHD-RS-IV Inattention subscale, Baseline Score” value ([2]; 5 mg/day oral (2.5 mg bid), all patients N = 38)?
Its value is 23.8.

What about the “ADHD-RS-IV Hyperactivity subscale, Change from Baseline” value [2, 4] of the same compound?
The value was −5.9.

And the “ADHD-RS-IV Hyperactivity subscale, Change from Baseline (percent decrease)” value [2, 4]?
The value was 47%.

What about the “ADHD-RS-IV Hyperactivity subscale, Post Treatment Score” value [2, 4] of the same compound?
The value was 6.6.

And the “ADHD-RS-IV Impulsivity subscale, Change from Baseline” value [2, 4]?
The value was −2.7.

What about the “ADHD-RS-IV Impulsivity subscale, Change from Baseline (percent decrease)” value [2, 4] of the same compound?
Its value is 44%.

What about the “ADHD-RS-IV Impulsivity subscale, Post Treatment Score” value [2, 4] of the same compound?
Its value is 3.4.

What about the “ADHD-RS-IV Inattention subscale, Change from Baseline” value [2, 4] of the same compound?
The value was −9.4.

What about the “ADHD-RS-IV Inattention subscale, Change from Baseline (percent decrease)” value [2, 4] of the same compound?
Its value is 39%.

And the “ADHD-RS-IV Total score, Change from Baseline” value [2, 4]?
Its value is −17.9.

What about the “ADHD-RS-IV Total score, Change from Baseline (percent decrease)” value [2, 4] of the same compound?
The value was “(42%)”.

What about the “ADHD-RS-IV Total score, Post Treatment Score” value [2, 4] of the same compound?
Its value is 24.5.

What about the “ADHD-RS-IV Total score, Change from Baseline (percent decrease)” value ([2]; 5 mg/day oral, 14 days, all patients N = 38, listed as eltoprazine) of the same compound?
The value was 42%.

And the “ADHD-RS-IV Hyperactivity subscale, Baseline Score” value [2, 5]?
The value was 12.5.

And the “ADHD-RS-IV Impulsivity subscale, Baseline Score” value [2, 5]?
The value was 6.1.

And the “ADHD-RS-IV Total score, Baseline Score” value [2, 5]?
The value was 42.4.

And the “ADHD-RS-IV Inattention subscale, Post Treatment Score” value ([2]; 10 mg/day oral (5 mg bid), 14 days, all patients N = 37)?
Its value is 14.8.

What about the “ADHD-RS-IV Inattention subscale, Baseline Score” value ([2]; 10 mg/day oral (5 mg bid), all patients N = 37) of the same compound?
Its value is 23.8.

And the “ADHD-RS-IV Hyperactivity subscale, Change from Baseline” value [2, 6]?
The value was −5.5.

And the “ADHD-RS-IV Hyperactivity subscale, Change from Baseline (percent decrease)” value [2, 6]?
Its value is 43%.

And the “ADHD-RS-IV Hyperactivity subscale, Post Treatment Score” value [2, 6]?
The value was 7.2.

And the “ADHD-RS-IV Impulsivity subscale, Change from Baseline” value [2, 6]?
Its value is −2.9.

And the “ADHD-RS-IV Impulsivity subscale, Change from Baseline (percent decrease)” value [2, 6]?
Its value is 47%.

And the “ADHD-RS-IV Impulsivity subscale, Post Treatment Score” value [2, 6]?
Its value is 3.2.

And the “ADHD-RS-IV Inattention subscale, Change from Baseline” value [2, 6]?
The value was −9.0.

What about the “ADHD-RS-IV Inattention subscale, Change from Baseline (percent decrease)” value [2, 6] of the same compound?
The value was 38%.

And the “ADHD-RS-IV Total score, Change from Baseline” value [2, 6]?
The value was −17.4.

And the “ADHD-RS-IV Total score, Change from Baseline (percent decrease)” value [2, 6]?
Its value is “(41%)”.

What about the “ADHD-RS-IV Total score, Post Treatment Score” value [2, 6] of the same compound?
The value was 25.3.

And the “ADHD-RS-IV Total score, Change from Baseline (percent decrease)” value ([2]; 10 mg/day oral, 14 days, all patients N = 37, listed as eltoprazine)?
The value was 41%.

And the “ADHD-RS-IV Hyperactivity subscale, Baseline Score” value [2, 7]?
The value was 12.8.

What about the “ADHD-RS-IV Impulsivity subscale, Baseline Score” value [2, 7] of the same compound?
The value was 6.1.

What about the “ADHD-RS-IV Total score, Baseline Score” value [2, 7] of the same compound?
Its value is 42.7.

What about the “Selective action on ADHD symptoms (inattention, hyperactivity, impulsivity)” value ([2]; human clinical study in patients with ADHD) of the same compound?
Its value is “predominantly on inattention and hyperactivity and to a lesser degree impulsivity; also recorded: greater activity treating hyperactivity and inattention compared to impulsivity”.

What about the “ADHD-RS-IV hyperactivity subscale score, decrease from baseline (improvement)” value [2, 8] of the same compound?
The value was 56%.

What about the “ADHD-RS-IV impulsivity subscale score, decrease from baseline (improvement)” value [2, 8] of the same compound?
The value was 55%.

And the “ADHD-RS-IV inattention subscale score, decrease from baseline (improvement)” value [2, 8]?
The value was 54%.

And the “ADHD-RS-IV total score, decrease from baseline” value [2, 8]?
Its value is 55%.

And the CPT findings [3]?
Its CPT findings is “did not result in any statistically significant findings”.

And the Ki (dopamine receptors)?
Its Ki is greater than 1000 nM.
